Values joined by “and” are separate entries in the source; they are usually repeats but may differ in a detail not shown here. Identical values can stand only once.

Data set [1] can be described thus: Release of lansoprazole from pellets (dissolution, Ph. Eur. Paddle method). The settings on record: paddle 100 rpm, after one hour in artificial gastric juice pH 1.2, FIG. 1; for release of lansoprazole from pellets (comparison in words): phosphate buffer pH 6.8, 37° C. The class given is physicochemical. As to the method:
The release of lansoprazole was spectrophotometrically determined using Hewlett Packard 8452 A Diode array spectrophotometer and automatic sampling system Multicell Transport System. Dissolution profiles were obtained at 37° C. using 900 ml phosphate buffer solution having pH 6.8 and Ph. Eur. Paddle method (100 rpm). Before analysis, the pellet samples were treated with artificial gastric juice (500 ml) having a pH of 1.2 for one hour, washed and quantitatively transferred into the phosphate buffer. […] Preferably more than 80%, more preferably more than 85% and most preferred more than 90% of lansoprazole are released from the compositions according to the invention within 30 minutes.
If a lansoprazole prepared according to example 4 having a BET-surface area of 4.76 m^2/g is used, more than 90% of the drug is released within the first 30 minutes (upper curve).

Data set [2] is described as follows: BET-surface area determination (nitrogen desorption, BET FlowSorb II 2300). The settings on record: 30 vol. % nitrogen / 70 vol. % helium at 77 K. The class given is physicochemical. As to the method:
Unless otherwise noted, the BET-surface areas of the produced lansoprazole are determined by calculation from desorption data of nitrogen obtained on a BET FlowSorb II 2300 (Micromeritics Instrument Corp., USA) using a mixture of 30 vol. % nitrogen and 70 vol. % helium at 77 K.

Where [3] appears, read: lansoprazole form A as obtained after purification and drying.

As for `Cc1c(OCC(F)(F)F)ccnc1C[S+]([O-])c1nc2ccccc2[nH]1` (centres unmarked) [Example 3, 2-[[[3-methyl-4-(2,2,2-trifluoroethoxy)-2-pyridinyl]methyl]sulfinyl]-1H-benzimidazole], in data set [1], the “release of lansoprazole from pellets (comparison in words)” value (“release of lansoprazole from pellets” below) is listed as “clearly smaller release”. In addition, the results for the BET-surface area in data set [2] (setting [3]) and in data set [2] (lansoprazole form A further milled) were 0.25 m^2/g and 0.87 m^2/g, respectively.
Consider `Cc1c(OCC(F)(F)F)ccnc1C[S+]([O-])c1nc2ccccc2[nH]1` (centres unmarked) [Example 4, 2-[[[3-methyl-4-(2,2,2-trifluoroethoxy)-2-pyridinyl]methyl]sulfinyl]-1H-benzimidazole], for which, in data set [1] (pellets prepared according to Example 8, within the first 30 minutes, 900 ml phosphate buffer pH 6.8, 37° C.), the drug released result is “more than 90%”. Besides, in data set [1] (listed as lansoprazole having a BET-surface area of 4.67 m^2/g), the “release of lansoprazole from pellets” value was “clearly faster”. In data set [2] (setting [3]), the BET-surface area was 4.67 m^2/g and 4.76 m^2/g.
On to `Cc1c(OCC(F)(F)F)ccnc1C[S+]([O-])c1nc2ccccc2[nH]1` (centres unmarked) [Example 5, 2-[[[3-methyl-4-(2,2,2-trifluoroethoxy)-2-pyridinyl]methyl]sulfinyl]-1H-benzimidazole], for which the “release of lansoprazole from pellets” value in data set [1] was “clearly smaller release”. In data set [2] (setting [3]), the BET-surface area is 1.0 m^2/g and 1.00 m^2/g.
